Reference: ChEMBL document CHEMBL5154653, “The discovery of 1, 3-diamino-7H-pyrrol[3, 2-f]quinazoline compounds as potent antimicrobial antifolates” (Eur J Med Chem, 2022)
Values belong to the molecule of their own block, whether it stands above or below them. Activity calls are given as the source filed them. The rule behind the calls is not given here.

Key:
[1] = test system: Escherichia coli; assay: Inhibition of Escherichia coli C-terminal hexahistidine tagged DHFR at 5 uM incubated for 5 mins in presence of NADPH by measuring oxidation of NADPH to NADP+
[2] = test system: Escherichia coli; assay: Antibacterial activity against Escherichia coli ATCC 25922 assessed as reduction in microbial growth after 16 to 18 hrs by microbroth dilution method; format: functional; conditions: time 16-18 hrs
[3] = test system: Klebsiella pneumoniae; assay: Antibacterial activity against Klebsiella pneumoniae ATCC 700603 assessed as reduction in microbial growth after 16 to 18 hrs by microbroth dilution method; format: functional; conditions: time 16-18 hrs
[4] = test system: Acinetobacter baumannii; assay: Antibacterial activity against Acinetobacter baumannii ATCC 19606 assessed as reduction in microbial growth after 16 to 18 hrs by microbroth dilution method; format: functional; conditions: time 16-18 hrs
[5] = Inhibition of Escherichia coli C-terminal hexahistidine tagged DHFR incubated for 5 mins in presence of NADPH by measuring oxidation of NADPH to NADP+
[6] = test system: Escherichia coli; assay: Binding affinity to Escherichia coli C-terminal hexahistidine tagged DHFR assessed as change in enthalpy at 0.2 mM by isothermal titration calorimetry method
[7] = test system: Escherichia coli; assay: Binding affinity to Escherichia coli C-terminal hexahistidine tagged DHFR assessed as change in entropy at 0.2 mM by isothermal titration calorimetry method
[8] = Binding affinity to Escherichia coli C-terminal hexahistidine tagged DHFR assessed as dissociation constant by isothermal titration calorimetry method
[9] = test system: Escherichia coli; assay: Binding affinity to Escherichia coli C-terminal hexahistidine tagged DHFR assessed as change in gibbs free energy at 0.2 mM by isothermal titration calorimetry method
[10] = test system: Acinetobacter baumannii; assay: Antibacterial activity against multi drug resistant Acinetobacter baumannii CCPM(A)-100902 assessed as reduction in microbial growth after 16 to 18 hrs by microbroth dilution method; format: functional; conditions: time 16-18 hrs
[11] = test system: Acinetobacter baumannii; assay: Antibacterial activity against multi drug resistant Acinetobacter baumannii CCPM(A)-100903 assessed as reduction in microbial growth after 16 to 18 hrs by microbroth dilution method; format: functional; conditions: time 16-18 hrs
[12] = test system: Acinetobacter baumannii; assay: Antibacterial activity against multi drug resistant Acinetobacter baumannii CCPM(A)-1100708 assessed as reduction in microbial growth after 16 to 18 hrs by microbroth dilution method; format: functional; conditions: time 16-18 hrs
[13] = test system: Acinetobacter baumannii; assay: Antibacterial activity against Acinetobacter baumannii CCPM(A)-100946 assessed as reduction in microbial growth after 16 to 18 hrs by microbroth dilution method; format: functional; conditions: time 16-18 hrs
[14] = test system: Acinetobacter baumannii; assay: Antibacterial activity against Acinetobacter baumannii CCPM(A)-100947 assessed as reduction in microbial growth after 16 to 18 hrs by microbroth dilution method; format: functional; conditions: time 16-18 hrs
[15] = test system: Klebsiella pneumoniae; assay: Antibacterial activity against ESBL-producing Klebsiella pneumoniae CCPM(A)-081514 assessed as reduction in microbial growth after 16 to 18 hrs by microbroth dilution method; format: functional; conditions: time 16-18 hrs
[16] = test system: Klebsiella pneumoniae; assay: Antibacterial activity against ESBL-producing Klebsiella pneumoniae CCPM(A)-081568 assessed as reduction in microbial growth after 16 to 18 hrs by microbroth dilution method; format: functional; conditions: time 16-18 hrs
[17] = test system: Klebsiella pneumoniae; assay: Antibacterial activity against Klebsiella pneumoniae CCPM(A)-081018 assessed as reduction in microbial growth after 16 to 18 hrs by microbroth dilution method; format: functional; conditions: time 16-18 hrs
[18] = test system: Escherichia coli; assay: Antibacterial activity against Escherichia coli CCPM(A)-0715118 assessed as reduction in microbial growth after 16 to 18 hrs by microbroth dilution method; format: functional; conditions: time 16-18 hrs
[19] = test system: Escherichia coli; assay: Antibacterial activity against ESBL-producing Escherichia coli CCPM(A)-071030 assessed as reduction in microbial growth after 16 to 18 hrs by microbroth dilution method; format: functional; conditions: time 16-18 hrs
[20] = test system: Escherichia coli; assay: Antibacterial activity against ESBL-producing Escherichia coli CCPM(A)-0715117 assessed as reduction in microbial growth after 16 to 18 hrs by microbroth dilution method; format: functional; conditions: time 16-18 hrs
[21] = test system: Escherichia coli; assay: Antibacterial activity against ESBL-producing Escherichia coli CCPM(A)-0715142 assessed as reduction in microbial growth after 16 to 18 hrs by microbroth dilution method; format: functional; conditions: time 16-18 hrs
[22] = test system: Staphylococcus aureus; assay: Antibacterial activity against Staphylococcus aureus ATCC 29213 assessed as reduction in microbial growth after 16 to 18 hrs by microbroth dilution method; format: functional; conditions: time 16-18 hrs
[23] = test system: Staphylococcus aureus; assay: Antibacterial activity against methicillin-resistant Staphylococcus aureus ATCC 43300 assessed as reduction in microbial growth after 16 to 18 hrs by microbroth dilution method; format: functional; conditions: time 16-18 hrs
[24] = test system: Enterococcus faecium; assay: Antibacterial activity against vancomycin-resistant Enterococcus faecium ATCC 51559 assessed as reduction in microbial growth after 16 to 18 hrs by microbroth dilution method; format: functional; conditions: time 16-18 hrs
[25] = test system: Escherichia coli; assay: Antibacterial activity against Escherichia coli ATCC 25922 overexpressing DHFR assessed as reduction in microbial growth after 16 to 18 hrs by microbroth dilution method; format: functional; conditions: time 16-18 hrs
[26] = molecular target: Thymidylate synthase (Escherichia coli K-12, UniProt P0A884); assay: Inhibition of Escherichia coli N-terminal hexahstidine-tagged TS by steady-state kinetic analysis
[27] = molecular target: Thymidylate synthase (Escherichia coli K-12) (UniProt P0A884); assay: Binding affinity to Escherichia coli […] hexahistidine-tagged TS at 20 uM by biolayer interferometry assay
[28] = test system: Klebsiella pneumoniae; assay: Antibacterial activity against ESBL-producing Klebsiella pneumoniae ATCC 700603 assessed as reduction in microbial growth after 16 to 18 hrs by microbroth dilution method; format: functional; conditions: time 16-18 hrs
[29] = test system: Escherichia coli; assay: Antibacterial activity against Escherichia coli ATCC 25922 assessed as blockage of folate pathway after 16 to 18 hrs in presence of thymine by microbroth dilution method; format: functional; conditions: time 16-18 hrs
[30] = test system: Escherichia coli; assay: Antibacterial activity against Escherichia coli ATCC 25922 overexpressing DHFR assessed as fold increase in MIC after 16 to 18 hrs by microbroth dilution method; format: functional; conditions: time 16-18 hrs
[31] = test system: Escherichia coli; assay: Antibacterial activity against Escherichia coli ATCC 25922 assessed as blockage of folate pathway after 16 to 18 hrs in presence of thymine by measuring fold increase in MIC by microbroth dilution method; format: functional; conditions: time 16-18 hrs
[32] = molecular target: Thymidylate synthase (Escherichia coli K-12) (UniProt P0A884); assay: Inhibition of Escherichia coli N-terminal hexahstidine-tagged TS at 500 uM by steady-state kinetic analysis

Sequence of Thymidylate synthase (Escherichia coli K-12) (P0A884 whole entry, looked up): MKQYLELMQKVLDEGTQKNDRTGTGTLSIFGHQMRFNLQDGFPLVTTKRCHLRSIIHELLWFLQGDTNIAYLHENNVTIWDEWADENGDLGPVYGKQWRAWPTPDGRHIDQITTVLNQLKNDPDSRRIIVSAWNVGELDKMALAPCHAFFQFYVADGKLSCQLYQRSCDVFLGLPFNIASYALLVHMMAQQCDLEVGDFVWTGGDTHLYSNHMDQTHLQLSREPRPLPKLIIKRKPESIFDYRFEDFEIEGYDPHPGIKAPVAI
Sequence of Thymidylate synthase (P0A884 whole entry): as the sequence (P0A884 whole entry, looked up) above

Compound: Nc1nc(N)c2c(ccc3c2ccn3Cc2nnc(-c3ccc(C(F)(F)F)cc3)o2)n1
inhibition [1]: 13.3%
MIC [2]: 16 mg/L
MIC [3]: 32 mg/L
MIC [4]: 16 mg/L

Compound: Nc1nc(N)c2c(ccc3c2ccn3Cc2ccc(F)cc2)n1
inhibition [1]: 78.9%
MIC [2]: 0.002 mg/L
MIC [3]: 0.25 mg/L
MIC [4]: 0.06 mg/L

Compound: Nc1nc(N)c2c(ccc3c2ccn3Cc2cccs2)n1
inhibition [1]: 92.8%
MIC [2]: 0.002 mg/L
MIC [3]: 1 mg/L
MIC [4]: 1 mg/L
IC50 [5]: 0.0159 µM
deltaH [6]: -77.5 kJ/mol
deltaS [7]: -24.1 cal/mol/deg
Kd [8]: 0.00485 µM
deltaG [9]: -47.4 kJ/mol
MIC [10]: 0.25 mg/L
MIC [11]: 8 mg/L
MIC [12]: 8 mg/L
MIC [13]: 8 mg/L
MIC [14]: 0.5 mg/L
MIC [15]: 0.06 mg/L
MIC [16]: 0.002 mg/L
MIC [17]: 16 mg/L
MIC [18]: 16 mg/L
MIC [19]: 0.002 mg/L
MIC [20]: 0.002 mg/L
MIC [21]: 0.002 mg/L
MIC [22]: 0.03 mg/L
MIC [23]: 0.25 mg/L
MIC [24]: 0.03 mg/L
MIC [25]: 8 mg/L
IC50 [26]: 11.4 µM
Activity [27]: Active
MIC [28]: ≤ 0.25 mg/L
MIC [29]: 16 mg/L
fold change (FC) [30]: 4000
fold change (FC) [31]: 8000
inhibition [32]: 50%

Compound: COc1ccc(Cn2ccc3c4c(N)nc(N)nc4ccc32)cc1
inhibition [1]: 68.1%
MIC [2]: 0.002 mg/L
MIC [3]: 0.25 mg/L
MIC [4]: 2 mg/L

Now from value to molecule:

inhibition [1]: 100%
MIC [2]: 16 mg/L
MIC [3]: 128 mg/L
MIC [4]: 512 mg/L
Compound: Nc1nc(N)c2c(ccc3c2ccn3Cc2cccc(C(=O)N3CCOCC3)c2)n1

inhibition [1]: 80.3%
MIC [2]: 8 mg/L
MIC [3]: 32 mg/L
MIC [4]: 128 mg/L
Compound: Nc1nc(N)c2c(ccc3c2ccn3Cc2ccc(C(=O)N3CCOCC3)cc2)n1
